Reference: patent US20230364070A1, “PYRROLO[3,2-C]PYRIDIN-4-ONE DERIVATIVES USEFUL IN THE TREATMENT OF CANCER” (Scorpion Therapeutics, Inc., priority 2020, published 2023)

Assays:
Format in all cases: cell-based
[1] = target: T1, Ba/F3 cells with EGFR WT (Homo sapiens, UniProt P00533); test: EGFR activity: Ba/F3 cell viability (CellTiter-Glo, 72 h), EGFR WT; settings: read-out: BaF3 WT IC50
T1 construct: expressed in transfected cells; host or cells: Ba/F3 (murine pro-B cells), retroviral transduction, puromycin selection, maintained with EGF
T1 sequence (P00533 25-1210): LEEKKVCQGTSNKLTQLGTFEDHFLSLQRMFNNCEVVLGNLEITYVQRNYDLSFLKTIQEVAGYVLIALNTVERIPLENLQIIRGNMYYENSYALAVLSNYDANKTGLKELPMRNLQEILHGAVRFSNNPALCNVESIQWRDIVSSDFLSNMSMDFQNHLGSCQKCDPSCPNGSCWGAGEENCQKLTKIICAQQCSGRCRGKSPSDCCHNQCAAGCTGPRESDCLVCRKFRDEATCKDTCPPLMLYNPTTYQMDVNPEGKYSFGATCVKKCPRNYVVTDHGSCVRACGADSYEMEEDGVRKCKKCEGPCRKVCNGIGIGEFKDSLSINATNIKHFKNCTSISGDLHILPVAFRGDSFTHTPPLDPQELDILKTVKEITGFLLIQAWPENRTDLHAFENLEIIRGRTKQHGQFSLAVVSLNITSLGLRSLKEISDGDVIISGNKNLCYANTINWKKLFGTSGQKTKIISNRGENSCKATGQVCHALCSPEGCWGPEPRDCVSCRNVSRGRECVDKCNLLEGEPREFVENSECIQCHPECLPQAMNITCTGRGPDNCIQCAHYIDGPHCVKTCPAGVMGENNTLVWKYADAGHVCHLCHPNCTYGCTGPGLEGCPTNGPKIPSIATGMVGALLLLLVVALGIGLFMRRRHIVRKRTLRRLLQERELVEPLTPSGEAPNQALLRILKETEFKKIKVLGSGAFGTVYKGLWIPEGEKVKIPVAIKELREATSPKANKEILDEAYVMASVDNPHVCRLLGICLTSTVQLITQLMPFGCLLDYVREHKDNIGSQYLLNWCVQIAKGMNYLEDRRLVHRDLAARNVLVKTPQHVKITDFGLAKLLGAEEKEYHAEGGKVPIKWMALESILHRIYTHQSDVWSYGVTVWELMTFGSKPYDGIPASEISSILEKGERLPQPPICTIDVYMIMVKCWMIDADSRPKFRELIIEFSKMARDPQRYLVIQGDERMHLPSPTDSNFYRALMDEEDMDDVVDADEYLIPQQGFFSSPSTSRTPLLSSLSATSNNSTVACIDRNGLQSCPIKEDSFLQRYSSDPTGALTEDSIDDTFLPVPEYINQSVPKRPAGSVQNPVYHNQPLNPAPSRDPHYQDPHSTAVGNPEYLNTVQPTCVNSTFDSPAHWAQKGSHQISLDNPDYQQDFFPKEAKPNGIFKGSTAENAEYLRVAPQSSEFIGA

[2] = target: T2, Ba/F3 cells with EGFR exon 20 NPG Ins D770_N771 (Homo sapiens, UniProt P00533, INS770NPG); test: EGFR activity: Ba/F3 cell viability (CellTiter-Glo, 72 h), EGFR exon 20 NPG insertion; settings: EGFR exon 20 NPG Ins D770_N771, cell viability, read-out: BaF3 NPG IC50
T2 construct: expressed in transfected cells; host or cells: Ba/F3 (murine pro-B cells), retroviral transduction, puromycin selection, IL3-independent pool
T2 sequence (P00533 with tags, fused parts or gaps INS770NPG): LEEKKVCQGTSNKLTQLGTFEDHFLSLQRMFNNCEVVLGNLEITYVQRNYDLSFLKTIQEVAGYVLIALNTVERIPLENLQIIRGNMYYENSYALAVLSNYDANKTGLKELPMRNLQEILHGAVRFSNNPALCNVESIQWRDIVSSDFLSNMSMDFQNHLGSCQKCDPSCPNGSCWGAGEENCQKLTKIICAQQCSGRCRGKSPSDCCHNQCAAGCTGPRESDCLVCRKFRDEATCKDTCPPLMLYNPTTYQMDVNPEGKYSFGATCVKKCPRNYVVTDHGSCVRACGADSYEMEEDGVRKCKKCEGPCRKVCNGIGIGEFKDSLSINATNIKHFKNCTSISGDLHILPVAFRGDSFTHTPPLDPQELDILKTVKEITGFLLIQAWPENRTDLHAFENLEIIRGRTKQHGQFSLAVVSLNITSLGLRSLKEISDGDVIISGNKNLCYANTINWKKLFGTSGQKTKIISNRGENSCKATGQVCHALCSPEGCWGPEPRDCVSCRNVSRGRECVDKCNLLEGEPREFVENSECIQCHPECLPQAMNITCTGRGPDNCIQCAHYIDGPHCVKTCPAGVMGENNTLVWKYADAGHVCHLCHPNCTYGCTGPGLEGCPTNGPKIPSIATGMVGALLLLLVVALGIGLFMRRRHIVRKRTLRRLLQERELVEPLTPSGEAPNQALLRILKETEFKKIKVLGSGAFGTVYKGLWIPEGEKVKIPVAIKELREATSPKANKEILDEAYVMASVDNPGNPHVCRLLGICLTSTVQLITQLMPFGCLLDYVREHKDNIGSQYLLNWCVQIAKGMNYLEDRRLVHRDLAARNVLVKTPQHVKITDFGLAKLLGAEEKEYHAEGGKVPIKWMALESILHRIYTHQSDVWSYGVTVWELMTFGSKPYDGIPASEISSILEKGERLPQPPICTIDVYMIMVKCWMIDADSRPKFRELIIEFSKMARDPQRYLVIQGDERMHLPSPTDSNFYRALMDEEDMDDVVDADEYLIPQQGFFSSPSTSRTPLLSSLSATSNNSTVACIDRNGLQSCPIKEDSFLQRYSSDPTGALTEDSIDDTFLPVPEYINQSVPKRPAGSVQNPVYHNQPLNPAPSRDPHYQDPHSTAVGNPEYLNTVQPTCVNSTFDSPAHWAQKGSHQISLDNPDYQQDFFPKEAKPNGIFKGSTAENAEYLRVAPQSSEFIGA

[3] = target: T3, Ba/F3 cells with EGFR exon 20 ASV Ins V769_D770 (Homo sapiens, UniProt P00533, INS769ASV); test: EGFR activity: Ba/F3 cell viability (CellTiter-Glo, 72 h), EGFR exon 20 ASV insertion; settings: EGFR exon 20 ASV Ins V769_D770, cell viability, read-out: BaF3 ASV IC50
T3 construct: expressed in transfected cells; host or cells: Ba/F3 (murine pro-B cells), retroviral transduction, puromycin selection, IL3-independent pool
T3 sequence (P00533 with tags, fused parts or gaps INS769ASV): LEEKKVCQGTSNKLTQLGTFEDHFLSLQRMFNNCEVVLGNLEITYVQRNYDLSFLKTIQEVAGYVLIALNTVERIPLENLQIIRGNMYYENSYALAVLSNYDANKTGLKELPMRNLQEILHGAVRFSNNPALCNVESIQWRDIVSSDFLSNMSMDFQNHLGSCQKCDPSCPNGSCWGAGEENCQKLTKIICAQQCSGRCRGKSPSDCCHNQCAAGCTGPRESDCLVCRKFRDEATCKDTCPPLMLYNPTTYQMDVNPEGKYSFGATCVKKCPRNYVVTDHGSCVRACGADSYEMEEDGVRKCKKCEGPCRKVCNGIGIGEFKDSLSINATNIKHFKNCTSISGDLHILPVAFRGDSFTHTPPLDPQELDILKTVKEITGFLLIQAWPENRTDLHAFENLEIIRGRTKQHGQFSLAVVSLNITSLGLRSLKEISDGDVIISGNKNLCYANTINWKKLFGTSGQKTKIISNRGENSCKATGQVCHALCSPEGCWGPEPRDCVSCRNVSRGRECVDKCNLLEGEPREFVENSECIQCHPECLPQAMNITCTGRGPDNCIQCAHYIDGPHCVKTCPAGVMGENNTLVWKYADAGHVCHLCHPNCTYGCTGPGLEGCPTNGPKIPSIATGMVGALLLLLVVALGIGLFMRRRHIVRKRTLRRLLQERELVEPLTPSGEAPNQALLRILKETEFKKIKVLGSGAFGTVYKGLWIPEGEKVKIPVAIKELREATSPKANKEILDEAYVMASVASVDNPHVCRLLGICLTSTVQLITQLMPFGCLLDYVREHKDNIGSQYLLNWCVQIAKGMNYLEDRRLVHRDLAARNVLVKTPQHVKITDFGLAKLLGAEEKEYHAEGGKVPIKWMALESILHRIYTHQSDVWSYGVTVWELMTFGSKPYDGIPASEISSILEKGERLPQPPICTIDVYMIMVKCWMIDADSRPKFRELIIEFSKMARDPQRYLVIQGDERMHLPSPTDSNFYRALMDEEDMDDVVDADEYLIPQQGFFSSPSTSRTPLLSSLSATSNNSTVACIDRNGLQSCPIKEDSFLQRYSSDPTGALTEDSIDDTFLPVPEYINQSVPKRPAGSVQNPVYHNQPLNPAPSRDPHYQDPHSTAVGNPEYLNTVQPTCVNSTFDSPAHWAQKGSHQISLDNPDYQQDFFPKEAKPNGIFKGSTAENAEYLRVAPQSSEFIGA

[4] = target: T4, pEGFR in CUTO14 cells (Homo sapiens, UniProt P00533, DUP767-769); test: Inhibitor activity on EGFR phosphorylation (pEGFR AlphaLISA, 2 h), CUTO14 cells
T4 construct: endogenous in cells; host or cells: CUTO14 cells
T4 sequence (P00533 with tags, fused parts or gaps DUP767-769): as the sequence (P00533 with tags, fused parts or gaps INS769ASV) above
Protocol: CUTO14 cells were obtained from Dr. Robert C. Doebele at the University of Colorado.
Shake 350 rpm for 1 hr in the dark • 3.4 Prepare donor mix under low light conditions prior to use. Dispense 5 μL of donor mix to all the wells. Mix well on the shaker, seal and wrap in aluminum foil and incubate 1.5 hrs at room temperature in the dark • 3.5 Transfer 18.5 μL mixture to OptiPlate 384, and read using an Envision.

IC50 [4] [nM] | Structure (SMILES) | IC50 [1] [nM] | IC50 [2] [nM] | IC50 [3] [nM]
< 100 | C=CC(=O)N1CCOC[C@H]1COc1cnccc1-c1[nH]c2c(c1Nc1cccc(F)c1OC)C(=O)NCC2 [compound 190] | 100 to 1000 | < 100 | < 100
< 100 | C=CC(=O)N1[C@H]2CC[C@H](C2)[C@@H]1C#Cc1cnccc1-c1[nH]c2c(c1Nc1cccc(Cl)c1OC)C(=O)NCC2 [compound 236, 3-[(3-chloro-2-methoxyphenyl)amino]-2-(3-{2-[(1S,3R,4R)-2-(prop-2-enoyl)-2-azabicyclo[2.2.1]heptan-3-yl]ethynyl}pyridin-4-yl)-1H,5H,6H,7H-pyrrolo[3,2-c]pyridin-4-one] | 100 to 1000 | < 100 | < 100
< 100 | C=CC(=O)N1[C@H](C#Cc2cnccc2-c2[nH]c3c(c2Nc2cccc(Cl)c2OC)C(=O)NCC3)CC[C@@H]1C [compound 240, 3-[(3-chloro-2-methoxyphenyl)amino]-2-(3-{2-[(2S,5S)-5-methyl-1-(prop-2-enoyl)pyrrolidin-2-yl]ethynyl}pyridin-4-yl)-1H,5H,6H,7H-pyrrolo[3,2-c]pyridin-4-one] | < 100 | < 100 | < 100
< 100 | C=CC(=O)N1[C@H]2CC[C@H](C2)[C@@H]1C#Cc1cnccc1-c1[nH]c2c(c1Nc1cccc(F)c1OC)C(=O)NCC2 [compound 252, 3-[(3-fluoro-2-methoxyphenyl)amino]-2-(3-{2-[(1S,3R,4R)-2-(prop-2-enoyl)-2-azabicyclo[2.2.1]heptan-3-yl]ethynyl}pyridin-4-yl)-1H,5H,6H,7H-pyrrolo[3,2-c]pyridin-4-one] | 100 to 1000 | < 100 | < 100
< 100 | C=CC(=O)N1[C@H](C#Cc2cnccc2-c2[nH]c3c(c2Nc2cccc(F)c2OC)C(=O)NCC3)CC[C@@H]1C [compound 255, 3-[(3-fluoro-2-methoxyphenyl)amino]-2-(3-{2-[(2S,5S)-5-methyl-1-(prop-2-enoyl)pyrrolidin-2-yl]ethynyl}pyridin-4-yl)-1H,5H,6H,7H-pyrrolo[3,2-c]pyridin-4-one] | < 100 | < 100 | < 100
< 100 | CC#CC(=O)N1CC[C@@H]1COc1cnccc1-c1[nH]c2c(c1Nc1cccc(F)c1OC)C(=O)NCC2 [compound 289, 2-(3-{[(2R)-1-(but-2-ynoyl)azetidin-2-yl]methoxy}pyridin-4-yl)-3-[(3-fluoro-2-methoxyphenyl)amino]-1H,5H,6H,7H-pyrrolo[3,2-c]pyridin-4-one] |  |  | 
< 100 | CC#CC(=O)N1CCC[C@]1(C)C#Cc1cnccc1-c1[nH]c2c(c1Nc1cccc(F)c1OC)C(=O)NCC2 [compound 291, 2-(3-{2-[(2R)-1-(but-2-ynoyl)-2-methylpyrrolidin-2-yl]ethynyl}pyridin-4-yl)-3-[(3-fluoro-2-methoxyphenyl)amino]-1H,5H,6H,7H-pyrrolo[3,2-c]pyridin-4-one] |  |  | 
< 100 | C=C(F)C(=O)N1CC[C@H]1COc1cnccc1-c1[nH]c2c(c1Nc1cccc(F)c1OC)C(=O)NCC2 [compound 296, 3-[(3-fluoro-2-methoxyphenyl)amino]-2-(3-{[(2S)-1-(2-fluoroprop-2-enoyl)azetidin-2-yl]methoxy}pyridin-4-yl)-1H,5H,6H,7H-pyrrolo[3,2-c]pyridin-4-one] |  |  | 
< 100 | CC#CC(=O)NC(C)(C)C#Cc1cnccc1-c1[nH]c2c(c1Nc1cccc(F)c1OC)C(=O)NCC2 [compound 302, N-[4-(4-{3-[(3-fluoro-2-methoxyphenyl)amino]-4-oxo-1H,5H,6H,7H-pyrrolo[3,2-c]pyridin-2-yl}pyridin-3-yl)-2-methylbut-3-yn-2-yl]but-2-ynamide] |  |  | 
< 100 | C=CC(=O)N1CC2CC1(C#Cc1cnccc1-c1[nH]c3c(c1Nc1cccc(F)c1OC)C(=O)NCC3)C2 [compound 318, 3-[(3-fluoro-2-methoxyphenyl)amino]-2-(3-{2-[2-(prop-2-enoyl)-2-azabicyclo[2.1.1]hexan-1-yl]ethynyl}pyridin-4-yl)-1H,5H,6H,7H-pyrrolo[3,2-c]pyridin-4-one] |  |  | 
< 100 | C=CC(=O)N1C(C)CC1COc1cnccc1-c1[nH]c2c(c1Nc1cccc(F)c1OC)C(=O)NCC2 (centres unmarked) [compound 333] |  |  | 
< 100 | COc1c(F)cccc1Nc1c(-c2ccncc2C#C[C@@]2(C)CCCN2C(=O)/C=C/CN(C)C)[nH]c2c1C(=O)NCC2 [compound 335, 2-(3-{2-[(2R)-1-[(2E)-4-(dimethylamino)but-2-enoyl]-2-methylpyrrolidin-2-yl]ethynyl}pyridin-4-yl)-3-[(3-fluoro-2-methoxyphenyl)amino]-1H,5H,6H,7H-pyrrolo[3,2-c]pyridin-4-one] |  |  | 
< 100 | COc1c(F)cccc1Nc1c(-c2ccncc2C#C[C@H]2CC(C)(C)CN2C(=O)/C=C/CN(C)C)[nH]c2c1C(=O)NCC2 [compound 344, 2-(3-{2-[(2R)-1-[(2E)-4-(dimethylamino)but-2-enoyl]-4,4-dimethylpyrrolidin-2-yl]ethynyl}pyridin-4-yl)-3-[(3-fluoro-2-methoxyphenyl)amino]-1H,5H,6H,7H-pyrrolo[3,2-c]pyridin-4-one] |  |  | 
< 100 | COc1c(F)cccc1Nc1c(-c2ccncc2C#C[C@H]2C[C@@H]3C[C@@H]3N2C(=O)/C=C/CN(C)C)[nH]c2c1C(=O)NCC2 [compound 345, 2-(3-{2-[(1S,3R,5S)-2-[(2E)-4-(dimethylamino)but-2-enoyl]-2-azabicyclo[3.1.0]hexan-3-yl]ethynyl}pyridin-4-yl)-3-[(3-fluoro-2-methoxyphenyl)amino]-1H,5H,6H,7H-pyrrolo[3,2-c]pyridin-4-one] |  |  | 
< 100 | CC#CC(=O)N1CC[C@@H]1COc1cnccc1-c1[nH]c2c(c1Nc1cccc(Cl)c1CC)C(=O)NCC2 [compound 348, 2-(3-{[(2R)-1-(but-2-ynoyl)azetidin-2-yl]methoxy}pyridin-4-yl)-3-[(3-chloro-2-ethylphenyl)amino]-1H,5H,6H,7H-pyrrolo[3,2-c]pyridin-4-one] |  |  | 
< 100 | COc1c(Cl)cccc1Nc1c(-c2ccncc2C#C[C@@]2(C)CCCN2C(=O)/C=C/CN(C)C)[nH]c2c1C(=O)NCC2 [compound 362, 3-[(3-chloro-2-methoxyphenyl)amino]-2-(3-{2-[(2R)-1-[(2E)-4-(dimethylamino)but-2-enoyl]-2-methylpyrrolidin-2-yl]ethynyl}pyridin-4-yl)-1H,5H,6H,7H-pyrrolo[3,2-c]pyridin-4-one] |  |  | 
< 100 | C=C(F)C(=O)N1CC[C@H]1COc1cnccc1-c1[nH]c2c(c1Nc1cccc(Cl)c1OC)C(=O)NCC2 [compound 363, 3-[(3-chloro-2-methoxyphenyl)amino]-2-(3-{[(2S)-1-(2-fluoroprop-2-enoyl)azetidin-2-yl]methoxy}pyridin-4-yl)-1H,5H,6H,7H-pyrrolo[3,2-c]pyridin-4-one] |  |  | 
< 100 | C=CC(=O)N[C@@H](C)C#Cc1cnccc1-c1[nH]c2c(c1Nc1cccc(F)c1OC)C(=O)NCC2 [compound 375, N-[(2S)-4-(4-{3-[(3-fluoro-2-methoxyphenyl)amino]-4-oxo-1H,5H,6H,7H-pyrrolo[3,2-c]pyridin-2-yl}pyridin-3-yl)but-3-yn-2-yl]prop-2-enamide] |  |  | 
< 100 | C=CC(=O)N[C@@H](C)C#Cc1cnccc1-c1[nH]c2c(c1Nc1cccc(Cl)c1OC)C(=O)NCC2 [compound 376, N-[(2S)-4-(4-{3-[(3-chloro-2-methoxyphenyl)amino]-4-oxo-1H,5H,6H,7H-pyrrolo[3,2-c]pyridin-2-yl}pyridin-3-yl)but-3-yn-2-yl]prop-2-enamide] |  |  | 
< 100 | COc1c(Cl)cccc1Nc1c(-c2ccncc2C#C[C@H]2C[C@@H]3C[C@@H]3N2C(=O)/C=C/CN(C)C)[nH]c2c1C(=O)NCC2 [compound 466, 3-[(3-chloro-2-methoxyphenyl)amino]-2-(3-{2-[(1S,3R,5S)-2-[(2E)-4-(dimethylamino)but-2-enoyl]-2-azabicyclo[3.1.0]hexan-3-yl]ethynyl}pyridin-4-yl)-1H,5H,6H,7H-pyrrolo[3,2-c]pyridin-4-one] |  |  | 
< 100 | C=CC(=O)N1CC(C)(C)[C@H]1COc1cnccc1-c1[nH]c2c(c1Nc1cccc(Cl)c1OC)C(=O)NCC2 [compound 512, 3-[(3-chloro-2-methoxyphenyl)amino]-2-(3-{[(2S)-3,3-dimethyl-1-(prop-2-enoyl)azetidin-2-yl]methoxy}pyridin-4-yl)-1H,5H,6H,7H-pyrrolo[3,2-c]pyridin-4-one] |  |  | 
> 1000 | C=CC(=O)N1CC[C@@]1(C)C#Cc1cnccc1-c1[nH]c2c(c1Nc1cccc(Cl)c1OC)C(=O)NCC2 [compound 550, 3-[(3-chloro-2-methoxyphenyl)amino]-2-(3-{2-[(2S)-2-methyl-1-(prop-2-enoyl)azetidin-2-yl]ethynyl}pyridin-4-yl)-1H,5H,6H,7H-pyrrolo[3,2-c]pyridin-4-one] |  |  | 
> 1000 | C=CC(=O)N1CC[C@]1(C)C#Cc1cnccc1-c1[nH]c2c(c1Nc1cccc(Cl)c1OC)C(=O)NCC2 [compound 551, 3-[(3-chloro-2-methoxyphenyl)amino]-2-(3-{2-[(2R)-2-methyl-1-(prop-2-enoyl)azetidin-2-yl]ethynyl}pyridin-4-yl)-1H,5H,6H,7H-pyrrolo[3,2-c]pyridin-4-one] |  |  | 
